Experimental data published in article PMC5218480 (PLoS ONE, 2017).

Test system: MV-4-11 cells
Assay: Gene expression microarray analysis (Affymetrix PrimeView) and GSEA
Format: cell-based, human
Parameters: RFU PODN (11730768_x_at) / Fold change /veh PODN (11730768_x_at) / RFU LINC00158 (11744669_a_at) / Fold change /veh LINC00158 (11744669_a_at) / RFU DUSP10 (11751237_a_at) / Fold change /veh DUSP10 (11751237_a_at) / RFU ID3 (11757404_x_at) / Fold change /veh ID3 (11757404_x_at) / RFU PLEKHG5 (11737974_s_at) / Fold change /veh PLEKHG5 (11737974_s_at) / RFU LRRC4B (11730491_at) / Fold change /veh LRRC4B (11730491_at) / RFU GIMAP4 (11747438_a_at) / Fold change /veh GIMAP4 (11747438_a_at) / RFU KRT8 (11758183_x_at) / Fold change /veh KRT8 (11758183_x_at) / RFU CNN1 (11734310_a_at) / Fold change /veh CNN1 (11734310_a_at) / RFU VPS37D (11726825_at) / Fold change /veh VPS37D (11726825_at) / RFU C10orf10 (11716522_x_at) / Fold change /veh C10orf10 (11716522_x_at) / RFU KIR2DL2 /// KIR2DL4 /// KIR2DL5A /// KIR2DL5B /// KIR2DS1 /// KIR2DS2 /// KIR2DS3 /// KIR2DS4 /// KIR3DL3 /// KIR3DL3 /// KIR3DS1 (11738374_at) / Fold change /veh KIR2DL2 /// KIR2DL4 /// KIR2DL5A /// KIR2DL5B /// KIR2DS1 /// KIR2DS2 /// KIR2DS3 /// KIR2DS4 /// KIR3DL3 /// KIR3DL3 /// KIR3DS1 (11738374_at) / RFU C1QL1 (11718748_at) / Fold change /veh C1QL1 (11718748_at) / RFU TMPRSS4 (11747572_a_at) / Fold change /veh TMPRSS4 (11747572_a_at) / RFU HAMP (11756126_x_at) / Fold change /veh HAMP (11756126_x_at) / RFU RNFT2 (11725882_a_at) / Fold change /veh RNFT2 (11725882_a_at) / RFU NR4A2 (11747474_a_at) / Fold change /veh NR4A2 (11747474_a_at) / RFU ABCC12 (11746883_a_at) / Fold change /veh ABCC12 (11746883_a_at) / RFU TMEM136 (11760407_x_at) / Fold change /veh TMEM136 (11760407_x_at) / RFU CLDN22 /// WWC2 (11732394_at) / Fold change /veh CLDN22 /// WWC2 (11732394_at) / RFU HLA-DPB1 (11760878_x_at) / Fold change /veh HLA-DPB1 (11760878_x_at) / RFU SPINT1 (11716480_a_at) / Fold change /veh SPINT1 (11716480_a_at) / RFU GAP43 (11754022_s_at) / Fold change /veh GAP43 (11754022_s_at) / RFU A4GNT (11735810_at) / Fold change /veh A4GNT (11735810_at) / RFU PRB3 (11715151_x_at) / Fold change /veh PRB3 (11715151_x_at) / RFU TUBB4B (11761932_at) / Fold change /veh TUBB4B (11761932_at) / RFU CAPN14 (11732068_a_at) / Fold change /veh CAPN14 (11732068_a_at) / RFU TMCC2 (11721928_a_at) / Fold change /veh TMCC2 (11721928_a_at) / RFU IRGQ (11745062_a_at) / Fold change /veh IRGQ (11745062_a_at) / RFU FAM174B (11720279_a_at) / Fold change /veh FAM174B (11720279_a_at) / RFU TMPRSS4 (11748680_a_at) / Fold change /veh TMPRSS4 (11748680_a_at) / RFU FAM212B (11763350_a_at) / Fold change /veh FAM212B (11763350_a_at) / RFU PLEKHG5 (11743358_a_at) / Fold change /veh PLEKHG5 (11743358_a_at) / RFU ZSCAN30 (11745921_a_at) / Fold change /veh ZSCAN30 (11745921_a_at) / RFU CMKLR1 (11741424_a_at) / Fold change /veh CMKLR1 (11741424_a_at) / RFU LOC101060620 /// MAPK8IP1 (11723275_at) / Fold change /veh LOC101060620 /// MAPK8IP1 (11723275_at) / RFU SPTSSB (11747773_x_at) / Fold change /veh SPTSSB (11747773_x_at) / RFU PRSS12 (11739890_at) / Fold change /veh PRSS12 (11739890_at) / RFU BIN1 (11741810_x_at) / Fold change /veh BIN1 (11741810_x_at) / RFU WNT11 (11732464_a_at) / Fold change /veh WNT11 (11732464_a_at) / RFU C10orf10 (11716521_a_at) / Fold change /veh C10orf10 (11716521_a_at) / RFU C5orf56 (11738089_at) / Fold change /veh C5orf56 (11738089_at) / RFU CYB561 (11721691_x_at) / Fold change /veh CYB561 (11721691_x_at) / RFU ANKRD19P (11752326_a_at) / Fold change /veh ANKRD19P (11752326_a_at) / RFU OR2T12 /// OR2T33 /// OR2T8 (11738714_s_at) / Fold change /veh OR2T12 /// OR2T33 /// OR2T8 (11738714_s_at) / RFU VCAN (11748164_a_at) / Fold change /veh VCAN (11748164_a_at) / RFU JSRP1 (11732532_at) / Fold change /veh JSRP1 (11732532_at) / RFU KRTAP10-11 (11738290_x_at) / Fold change /veh KRTAP10-11 (11738290_x_at) / RFU MYO3A (11730013_a_at) / Fold change /veh MYO3A (11730013_a_at) / RFU EBF3 (11725865_a_at) / Fold change /veh EBF3 (11725865_a_at) / RFU CAMK2N1 (11719241_x_at) / Fold change /veh CAMK2N1 (11719241_x_at) / RFU C5orf56 (11738088_a_at) / Fold change /veh C5orf56 (11738088_a_at) / RFU OLFML3 (11715873_a_at) / Fold change /veh OLFML3 (11715873_a_at) / RFU LOC100653217 /// NTM (11731650_a_at) / Fold change /veh LOC100653217 /// NTM (11731650_a_at) / RFU MAPK11 (11762145_a_at) / Fold change /veh MAPK11 (11762145_a_at) / RFU FIZ1 (11724087_x_at) / Fold change /veh FIZ1 (11724087_x_at) / RFU OASL (11726364_x_at) / Fold change /veh OASL (11726364_x_at) / RFU SOX15 (11748057_x_at) / Fold change /veh SOX15 (11748057_x_at) / RFU CD79A (11719716_a_at) / Fold change /veh CD79A (11719716_a_at) / RFU HIST1H1D (11736915_at) / Fold change /veh HIST1H1D (11736915_at) / RFU CASKIN2 (11723855_a_at) / Fold change /veh CASKIN2 (11723855_a_at) / RFU LOC730098 (11760151_x_at) / Fold change /veh LOC730098 (11760151_x_at) / RFU OR4N2 (11742367_at) / Fold change /veh OR4N2 (11742367_at) / RFU PRRT2 (11749266_a_at) / Fold change /veh PRRT2 (11749266_a_at) / RFU SNX32 (11753110_a_at) / Fold change /veh SNX32 (11753110_a_at) / RFU CDHR5 (11726645_a_at) / Fold change /veh CDHR5 (11726645_a_at) / RFU RCAN1 (11760418_a_at) / Fold change /veh RCAN1 (11760418_a_at) / RFU FAM167A (11723789_a_at) / Fold change /veh FAM167A (11723789_a_at) / RFU FAM26E (11764081_at) / Fold change /veh FAM26E (11764081_at) / RFU ISYNA1 (11749810_s_at) / Fold change /veh ISYNA1 (11749810_s_at) / RFU ACY1 (11761880_at) / Fold change /veh ACY1 (11761880_at) / RFU 11764098_at / Fold change /veh 11764098_at / RFU SAMD14 (11745864_x_at) / Fold change /veh SAMD14 (11745864_x_at) / RFU NPB (11741838_a_at) / Fold change /veh NPB (11741838_a_at) / RFU TMPRSS6 (11731388_a_at) / Fold change /veh TMPRSS6 (11731388_a_at) / RFU KRTAP10-2 (11738614_at) / Fold change /veh KRTAP10-2 (11738614_at) / RFU ARHGAP8 /// PRR5-ARHGAP8 (11727945_x_at) / Fold change /veh ARHGAP8 /// PRR5-ARHGAP8 (11727945_x_at) / RFU KRTAP5-7 /// NADSYN1 (11734609_at) / Fold change /veh KRTAP5-7 /// NADSYN1 (11734609_at) / RFU RASL12 (11751679_a_at) / Fold change /veh RASL12 (11751679_a_at) / RFU CDKN2B (11736163_a_at) / Fold change /veh CDKN2B (11736163_a_at) / RFU PRF1 (11729649_at) / Fold change /veh PRF1 (11729649_at) / RFU, ZNF638 /// ZNF638-IT1 / Fold change vs veh, ZNF638 /// ZNF638-IT1 / RFU, PANK3 / Fold change vs veh, PANK3 / RFU, SH3YL1 / Fold change vs veh, SH3YL1 / RFU, ZEB2 / Fold change vs veh, ZEB2 / RFU, NRIP1 / Fold change vs veh, NRIP1 / RFU, PTTG1IP / Fold change vs veh, PTTG1IP / RFU, CAPN2 / Fold change vs veh, CAPN2 / RFU, MED14 / Fold change vs veh, MED14 / RFU, SNORA58 / Fold change vs veh, SNORA58 / RFU, C1orf63 / Fold change vs veh, C1orf63 / RFU, LRRFIP1 / Fold change vs veh, LRRFIP1 / RFU, NDUFAF7 / Fold change vs veh, NDUFAF7 / RFU, SLC12A2 / Fold change vs veh, SLC12A2 / RFU, IBTK / Fold change vs veh, IBTK / RFU, ESF1 / Fold change vs veh, ESF1 / Fold change vs veh, TMEM50B / RFU, TAOK1 / Fold change vs veh, TAOK1 / RFU, ACBD3 / Fold change vs veh, ACBD3 / RFU, TMA16 / Fold change vs veh, TMA16 / RFU, RWDD3 / Fold change vs veh, RWDD3 / RFU, BCAT1 / Fold change vs veh, BCAT1 / RFU, EDEM3 / Fold change vs veh, EDEM3 / RFU, TMEM33 / Fold change vs veh, TMEM33 / RFU, WDR75 / Fold change vs veh, WDR75 / RFU, AHCTF1 / Fold change vs veh, AHCTF1 / RFU, TFRC / Fold change vs veh, TFRC / RFU, ZDHHC17 / Fold change vs veh, ZDHHC17 / RFU, NOM1 / Fold change vs veh, NOM1 / RFU, ARL8B / Fold change vs veh, ARL8B / RFU, ZBTB11 / Fold change vs veh, ZBTB11 / RFU, TAMM41 / Fold change vs veh, TAMM41 / RFU, KIAA1704 /// LOC100996395 / Fold change vs veh, KIAA1704 /// LOC100996395 / RFU, ING1 / Fold change vs veh, ING1 / RFU, TRMT61B / Fold change vs veh, TRMT61B / RFU, FUBP3 / Fold change vs veh, FUBP3 / RFU, TP53 / Fold change vs veh, TP53 / RFU, TNKS2 / Fold change vs veh, TNKS2 / RFU, ZFP14 / Fold change vs veh, ZFP14 / RFU, ACTR2 / Fold change vs veh, ACTR2 / RFU, PPP3R1 / Fold change vs veh, PPP3R1 / RFU, PIK3R1 / Fold change vs veh, PIK3R1 / RFU, HNRNPA1 / Fold change vs veh, HNRNPA1 / RFU, RNF170 / Fold change vs veh, RNF170 / RFU, ZNF28 / Fold change vs veh, ZNF28 / RFU, RNGTT / Fold change vs veh, RNGTT / RFU, OGT / Fold change vs veh, OGT / RFU, BRD1 / Fold change vs veh, BRD1 / RFU, MARS / Fold change vs veh, MARS / RFU, ZNF655 / Fold change vs veh, ZNF655 / RFU, FAHD1 / Fold change vs veh, FAHD1 / RFU, BDP1 / Fold change vs veh, BDP1 / RFU, LRRCC1 / Fold change vs veh, LRRCC1 / RFU, ARID1A / Fold change vs veh, ARID1A / RFU, ZNF146 / Fold change vs veh, ZNF146 / RFU, ZNF330 / Fold change vs veh, ZNF330 / RFU, GPN3 / Fold change vs veh, GPN3 / RFU, C9orf123 / Fold change vs veh, C9orf123 / RFU, N4BP2L2 / Fold change vs veh, N4BP2L2 / RFU, ARFIP1 / Fold change vs veh, ARFIP1 / RFU, FAM179B / Fold change vs veh, FAM179B / RFU, BCL10 / Fold change vs veh, BCL10 / RFU, UHRF1BP1L / Fold change vs veh, UHRF1BP1L / RFU, BET1 / Fold change vs veh, BET1 / RFU, CNOT2 / Fold change vs veh, CNOT2 / RFU, ZNF268 / Fold change vs veh, ZNF268 / Fold change vs veh, ZNF507 / RFU, DGCR2 / Fold change vs veh, DGCR2 / RFU, WDSUB1 / Fold change vs veh, WDSUB1 / Fold change vs veh, HSP90B1 /// MIR3652 / RFU, ADSS / Fold change vs veh, ADSS / RFU, GK / Fold change vs veh, GK / RFU, ZNF148 / Fold change vs veh, ZNF148 / RFU, TAF9 / Fold change vs veh, TAF9 / RFU, SLC1A5 / Fold change vs veh, SLC1A5 / RFU, SLMO2 / Fold change vs veh, SLMO2 / RFU, ABCC4 / Fold change vs veh, ABCC4 / RFU, LOC101060439 /// RAP1B / Fold change vs veh, LOC101060439 /// RAP1B / RFU, RFX7 / Fold change vs veh, RFX7 / RFU, GTPBP10 / Fold change vs veh, GTPBP10 / RFU, CNEP1R1 / Fold change vs veh, CNEP1R1 / RFU, BIVM-ERCC5 /// ERCC5 / Fold change vs veh, BIVM-ERCC5 /// ERCC5 / RFU, ILF3 / Fold change vs veh, ILF3 / RFU 11762660_at / Fold change /veh 11762660_at / RFU VCAN (11757783_s_at) / Fold change /veh VCAN (11757783_s_at) / RFU DDX43 (11728927_at) / Fold change /veh DDX43 (11728927_at) / RFU KRT8 (11758188_x_at) / Fold change /veh KRT8 (11758188_x_at) / RFU NKD1 (11759106_at) / Fold change /veh NKD1 (11759106_at) / RFU SRD5A1 (11742802_a_at) / Fold change /veh SRD5A1 (11742802_a_at) / RFU TPSAB1 /// TPSB2 (11721975_s_at) / Fold change /veh TPSAB1 /// TPSB2 (11721975_s_at) / RFU GSTM3 (11746129_a_at) / Fold change /veh GSTM3 (11746129_a_at) / RFU IL23R (11737362_x_at) / Fold change /veh IL23R (11737362_x_at) / RFU TMEM51 (11727254_a_at) / Fold change /veh TMEM51 (11727254_a_at) / RFU PIWIL2 (11732686_x_at) / Fold change /veh PIWIL2 (11732686_x_at) / RFU ORM1 (11744905_x_at) / Fold change /veh ORM1 (11744905_x_at) / RFU CCDC152 (11743942_at) / Fold change /veh CCDC152 (11743942_at) / RFU ECM1 (11717891_a_at) / Fold change /veh ECM1 (11717891_a_at) / RFU IL23R (11748794_a_at) / Fold change /veh IL23R (11748794_a_at) / RFU TNFAIP8L3 (11732012_x_at) / Fold change /veh TNFAIP8L3 (11732012_x_at) / RFU MBOAT4 (11741988_at) / Fold change /veh MBOAT4 (11741988_at) / RFU 11764193_at / Fold change /veh 11764193_at / RFU TMEM53 (11763286_at) / Fold change /veh TMEM53 (11763286_at) / RFU MAGEB2 (11727129_at) / Fold change /veh MAGEB2 (11727129_at) / RFU TMEM200A (11744735_a_at) / Fold change /veh TMEM200A (11744735_a_at) / RFU CCDC152 (11751479_a_at) / Fold change /veh CCDC152 (11751479_a_at) / RFU FAM211A (11726209_a_at) / Fold change /veh FAM211A (11726209_a_at) / RFU RGS16 (11746705_a_at) / Fold change /veh RGS16 (11746705_a_at) / RFU VCAN (11755009_s_at) / Fold change /veh VCAN (11755009_s_at) / RFU RHOB (11743442_s_at) / Fold change /veh RHOB (11743442_s_at) / RFU RGS16 (11720943_a_at) / Fold change /veh RGS16 (11720943_a_at) / RFU RGS16 (11720944_at) / Fold change /veh RGS16 (11720944_at) / RFU, VPS4B / Fold change vs veh, VPS4B / RFU, CREB1 / Fold change vs veh, CREB1 / RFU, DNAJC13 / Fold change vs veh, DNAJC13 / RFU, GNAQ / Fold change vs veh, GNAQ / RFU, CDK5R1 / Fold change vs veh, CDK5R1 / RFU, ZRANB3 / Fold change vs veh, ZRANB3 / RFU, CUL4A / Fold change vs veh, CUL4A / RFU, CCNY / Fold change vs veh, CCNY / RFU, UFL1 / Fold change vs veh, UFL1 / RFU, COG3 / Fold change vs veh, COG3 / RFU, DIAPH2 / Fold change vs veh, DIAPH2 / RFU, SKA2 / Fold change vs veh, SKA2 / RFU, AFF3 / Fold change vs veh, AFF3 / RFU, LMF1 / Fold change vs veh, LMF1 / RFU, IPO11 / Fold change vs veh, IPO11 / RFU, DFFB / Fold change vs veh, DFFB / RFU, FOXP1 / Fold change vs veh, FOXP1 / RFU, CARD8 / Fold change vs veh, CARD8 / RFU, STRN3 / Fold change vs veh, STRN3 / RFU, ADK / Fold change vs veh, ADK / RFU, RASSF2 / Fold change vs veh, RASSF2 / RFU, WIPF1 / Fold change vs veh, WIPF1 / RFU, LARP1B / Fold change vs veh, LARP1B / RFU, RASA1 / Fold change vs veh, RASA1 / RFU, RB1 / Fold change vs veh, RB1 / RFU, PPFIA1 / Fold change vs veh, PPFIA1 / RFU, MAT2A / Fold change vs veh, MAT2A / RFU, CCT5 / Fold change vs veh, CCT5 / RFU, WDR92 / Fold change vs veh, WDR92 / RFU, CUX1 / Fold change vs veh, CUX1 / RFU, TTC7A / Fold change vs veh, TTC7A / RFU, TMEM135 / Fold change vs veh, TMEM135 / RFU, DEPTOR / Fold change vs veh, DEPTOR / RFU, CPM / Fold change vs veh, CPM / RFU, DNAJB6 / Fold change vs veh, DNAJB6 / RFU, CACNA2D3 / Fold change vs veh, CACNA2D3 / RFU, DTX4 / Fold change vs veh, DTX4 / RFU, TFCP2 / Fold change vs veh, TFCP2 / RFU, GMCL1 /// GMCL1P1 / Fold change vs veh, GMCL1 /// GMCL1P1 / RFU, AEBP2 / Fold change vs veh, AEBP2 / RFU, SNHG1 /// SNORD22 /// SNORD25 /// SNORD26 /// SNORD27 /// SNORD28 /// SNORD29 /// SNORD31 / Fold change vs veh, SNHG1 /// SNORD22 /// SNORD25 /// SNORD26 /// SNORD27 /// SNORD28 /// SNORD29 /// SNORD31 / Fold change (Aza/veh), C12orf56 (ProbeSet 11735607_a_at) / Fold change (ACY-1035/veh), C12orf56 (ProbeSet 11735607_a_at) / Fold change (Aza/veh), FGFR1OP (ProbeSet 11751329_s_at) / Fold change (ACY-1035/veh), FGFR1OP (ProbeSet 11751329_s_at) / Fold change (Aza/veh), VPS36 (ProbeSet 11739960_a_at) / Fold change (ACY-1035/veh), VPS36 (ProbeSet 11739960_a_at) / RFU SYPL1 (11715823_x_at) / Fold change /veh SYPL1 (11715823_x_at) / RFU IGFBP7 (11715501_s_at) / Fold change /veh IGFBP7 (11715501_s_at) / RFU REEP3 (11722064_at) / Fold change /veh REEP3 (11722064_at) / RFU IGLL1 (11728026_x_at) / Fold change /veh IGLL1 (11728026_x_at): dose or concentration left out as unconfirmed
Details: ProbeSet 11720270_a_at; LIST B

Nc1ccc(-c2cccs2)cc1NC(=O)c1ccc2c(c1)cc(C1CC1)n2CCN1CCOCC1 [ACY-1035]
Fold change vs veh, IBTK: 0.91
